# Laboratory results from article PMC2935964, “Selective delivery of 2-hydroxy APA to Trypanosoma brucei using the melamine motif” (Bioorganic & Medicinal Chemistry Letters, 2010).
# Like-named read-outs stand apart in the source and are kept apart here.
# Columns and labels:
# [1] = tested on: T. brucei brucei wild type; assay: In vitro activity against T. brucei brucei wild type (P2 transporter proficient); assay type: cell-based, Trypanosoma brucei brucei; conditions: for EC50: Trypanosoma brucei, read-out: T. brucei brucei EC50 Wild type
# Method: (§1) Compounds were tested against two T. brucei lines in vitro. The T. brucei brucei wild type that is proficient in the P2 transporter and a TbAT1 knockout line lacking the P2 transporter. This TbAT1 knockout line has been described previously.[27]
# [2] = tested on: T. brucei brucei TbAT1 KO; assay: In vitro activity against TbAT1 knockout line lacking the P2 transporter; assay type: cell-based, Trypanosoma brucei brucei; conditions: for EC50: Trypanosoma brucei, read-out: T. brucei brucei EC50 TbAT1 KO; for Resistance factor (EC50 KO/EC50 w.t.): ratio TbAT1 KO vs wild type
# Method: as §1
# T. brucei ODC = T. brucei ODC (Trypanosoma brucei brucei, UniProt P07805); assay: Inhibition of T. brucei ODC (previously described assay); assay type: biochemical
# rat liver ODC = tested on: rat liver ODC; set-up: method as in PMID 1573631; conditions: previously reported; read-out: inhibition of rat liver ODC; cited from earlier work
# [3] = wild type, P2 proficient, NA = no activity at 100 μM
# T. brucei ODC, sequence (P07805 whole entry): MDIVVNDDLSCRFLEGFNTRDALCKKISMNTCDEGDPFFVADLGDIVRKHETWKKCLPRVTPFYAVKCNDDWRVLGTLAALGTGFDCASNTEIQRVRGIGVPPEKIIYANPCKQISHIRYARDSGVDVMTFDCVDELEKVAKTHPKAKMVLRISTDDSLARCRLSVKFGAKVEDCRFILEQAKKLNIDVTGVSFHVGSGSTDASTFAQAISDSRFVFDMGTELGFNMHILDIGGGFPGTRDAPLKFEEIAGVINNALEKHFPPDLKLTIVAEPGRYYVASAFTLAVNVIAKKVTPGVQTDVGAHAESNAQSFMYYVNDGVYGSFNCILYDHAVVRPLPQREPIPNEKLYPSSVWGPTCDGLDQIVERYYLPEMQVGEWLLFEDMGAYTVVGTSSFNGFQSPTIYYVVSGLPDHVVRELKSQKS
melting point [°C],SMILES,"EC50 [1, 3] [µM]",EC50 [1] [µM],EC50 [2] [µM],Resistance factor (EC50 KO/EC50 w.t.) [2],IC50 (T. brucei ODC) [µM],IC50 (rat liver ODC) [µM],"T. brucei brucei EC50 Wild type [1, 3]"
150 to 170,Cl.Cl.NCC(CON)OC(=O)CCNc1nc(N)nc(N)n1 (centres unmarked) [Compound 11b],> 100,–,–,–,–,–,–
–,CC(C)(C)OC(=O)NCC(CONC(=O)OC(C)(C)C)OC(=O)CCNc1nc(N)nc(N)n1 (centres unmarked) [Compound 10b],–,77,40,0.5,–,–,–
–,"NCC(O)CON (centres unmarked) [Compound 7, 2-hydroxy APA]",–,> 100,–,–,0.048 ± 0.009,0.039,–
–,Cl.Cl.NCC(CON)OC(=O)CCCNc1nc(N)nc(N)n1 (centres unmarked) [Compound 11d],113,–,288,2.5,–,–,–
150 to 170,Cl.Cl.NCC(CON)OC(=O)CNc1nc(N)nc(N)n1 (centres unmarked) [Compound 11a],> 100,–,–,–,–,–,–
–,"Cl.NCCCON [Compound 3, 3-(aminooxy)propanamine, reference compound]",–,> 100,–,–,0.022 ± 0.007,0.035,inactive

SMILES,melting point [°C],"EC50 [1, 3] [µM]",EC50 [1] [µM],EC50 [2] [µM],Resistance factor (EC50 KO/EC50 w.t.) [2],IC50 (T. brucei ODC) [µM],IC50 (rat liver ODC) [µM],"T. brucei brucei EC50 Wild type [1, 3]"
CC(Nc1nc(N)nc(N)n1)C(=O)OC(CN)CON.Cl.Cl (centres unmarked) [Compound 11c],160 to 180,29,–,–,>3,–,–,–
